Assay results taken from patent publication US20160304957A1, “TREATMENT AND MODULATION OF GENE EXPRESSION AND SKIN AGING” (DSM NUTRITIONAL PRODUCTS LTD., priority 2006, published 2016).

Test system: HaCaT human keratinocytes
Assay: Affymetrix GeneChip microarray, transcriptional response to β-carotene and/or UVA
Type: cell-based
Conditions: β-carotene 1.5 μM
Experimental: The cell culture experiments were carried out as described. Briefly, a subclone of passage 65 HaCaT keratinocytes, selected for differentiation capacity, was used at passages 16 to 23 after subcloning. 2×10^5 cells were seeded per 60 millimeter dish. Starting the following day, the cells were pretreated for 2 days with β-carotene at 1.5 μM, a typical concentration in human plasma after moderate dietary supplementation)
β-carotene-containing medium was prepared as follows. Fresh all-E-β-carotene (DSM Nutritional Products, Kaiseraugst, Switzerland) stock solution in THF (containing 0.025% BHT; Fluka Chemie A G, Switzerland) was diluted 1:2 with ethanol and added to cell culture medium to a final concentration of 1.5 μM β-carotene. The solvent concentration in the medium was 0.5% for all treatments. β-carotene-containing medium was prepared fresh for the daily medium changes.
On day 3 of the experiment, the cells were irradiated with a Hönle sun lamp Sol 500 (270 kJ/m^2; Dr. Hönle, Germany).
Five independent, factorially designed cell irradiation experiments were analyzed by microarray hybridization. For each experiment, one chip was hybridized per treatment condition. GeneChip® analysis was done as described in [132], which is incorporated by reference, as if recited in full herein. Gene regulation by β-carotene and/or UVA was calculated relative to placebo.
Changes in gene expression were included in further analysis only if the change factor was […], and if unpaired t-tests yielded p values≦0.05. Upregulations by a […] are labeled bold, downregulations by a change factor of […] are labeled bold italics. (Table 1) To identify the pathways affected by the treatments functional information on the genes was retrieved from public literature databases.

CC1=C(/C=C/C(C)=C/C=C/C(C)=C/C=C/C=C(C)/C=C/C=C(C)/C=C/C2=C(C)CCCC2(C)C)C(C)(C)CCC1 [β-carotene, All-E-β-carotene]
UVA induction of MMP-10, microarray (5 hours after UVA, UVA alone 4.6 fold): 3.2 fold
5-aminolevulinate synthase (Y00451) change factor (unirradiated): 0.08
AAC11 (U83857) change factor (unirradiated): −0.6
AP-2α (M36711) change factor (unirradiated): −0.02
ATF4; activating transcription factor 4 (AL022312) change factor (unirradiated): 0.11
BAXγ (L22475) change factor (unirradiated): 0.8
BAXδ (U19599) change factor (unirradiated): 0.6
BMP2a; bone morphogenetic protein 2a (bmp-2a) (M22489) change factor (unirradiated): −1.2
BPAG1; bullous pemphigoid antigen (M69225) change factor (unirradiated): −0.5
BUB1; mitotic checkpoint kinase (AF053305) change factor (unirradiated): −0.5
C-FOS (V01512) change factor (unirradiated): −0.14
C-FOS (V01512, second entry) change factor (unirradiated): −0.16
C-JUN (J04111) change factor (unirradiated): −0.06
C/EBPβ; NF-IL6 (X52560) change factor (unirradiated): −0.28
C/EBPγ (U20240) change factor (unirradiated): −0.09
C/EBPδ; NF-IL6-β (M83667) change factor (unirradiated): 0.04
CDK activating kinase (X77743) change factor (unirradiated): −0.01
CDK-inhibitor p57KIP2 (KIP2) mrna (U22398) change factor (unirradiated): −0.22
CENP-A; centromere protein-A (U14518) change factor (unirradiated): −0.13
CENP-E; centromere protein-E (Z15005) change factor (unirradiated): −0.37
CENP-F; mitosin (U30872) change factor (unirradiated): −0.42
CEP110; centriole associated protein (AF083322) change factor (unirradiated): 0.15
CIP2; CDKN3 (L25876) change factor (unirradiated): −0.18
CLARP; CFLAR, alternatively spliced (AF005775) change factor (unirradiated): −0.09
COUP-TF II; ARP1; apoA1 regulatory protein (M64497) change factor (unirradiated): 0.33
COX-2, cyclooxygenase-2 (U04636) change factor (unirradiated): −1.2
CRADD; death domain containing protein (U84388) change factor (unirradiated): −0.25
DKK-1; dickkopf-1 (AB020315) change factor (unirradiated): −0.3
DNA ligase III (X84740) change factor (unirradiated): −0.5
DNA polymerase α-subunit (X06745) change factor (unirradiated): −0.43
DNA primase (subunit p58) (X74331) change factor (unirradiated): −0.16
DNA-PK, catalytic subunit (U47077) change factor (unirradiated): −0.7
DSC2; desmocollin type 2a and 2b (X56807) change factor (unirradiated): −1.1
DUSP5 (U15932) change factor (unirradiated): −0.15
DUSP7 (X93921) change factor (unirradiated): −0.46
EGFR; precursor of epidermal growth factor receptor (X00588) change factor (unirradiated): −0.6
ENDOGL-2 (AB020735) change factor (unirradiated): 0.8
ERBB3 precursor; similar to (H06628) change factor (unirradiated): 0
ERCC5; excision repair protein (L20046) change factor (unirradiated): −0.48
ERF-2 (X78992) change factor (unirradiated): 0.31
FGFR2; FGF receptor 2 (M87770) change factor (unirradiated): 0.08
FGFR3; FGF receptor (M64347) change factor (unirradiated): −1.1
FRA-1 (X16707) change factor (unirradiated): 0.14
FRA-2 (X16706) change factor (unirradiated): −0.7
GADD34 (U83981) change factor (unirradiated): −0.11
GADD153 (S62138) change factor (unirradiated): −0.45
GDF-1; growth/differentiation factor 1 (gdf-1) (M62302) change factor (unirradiated): −0.8
GEM (U10550) change factor (unirradiated): −2.6
HB-EGF; heparin-binding egf-like growth factor (M60278) change factor (unirradiated): 0.33
HER3; epidermal growth factor receptor (her3) (M34309) change factor (unirradiated): −0.28
HER3; epidermal growth factor receptor (her3) (M34309, second entry) change factor (unirradiated): −0.6
HM74; PAR1-related (D10923) change factor (unirradiated): 0.18
HOXA7 (AJj005814) change factor (unirradiated): −0.43
HOXC6 (S82986) change factor (unirradiated): −0.07
HOXD4 (X59373) change factor (unirradiated): −0.5
ID1 (X77956) change factor (unirradiated): −0.01
ID1 (X77956, second entry) change factor (unirradiated): −0.11
ID3; HEIR1 (AL021154) change factor (unirradiated): −0.43
ID-2H (D13891) change factor (unirradiated): −0.7
ID-4 (AL022726) change factor (unirradiated): −0.08
IEX-1 (S81914) change factor (unirradiated): −0.08
IFIT1; IFI56 (M24594) change factor (unirradiated): 0
IFIT1; IFI56 (M24594, second entry) change factor (unirradiated): 0.05
IFIT2; ISG-54K (M14660) change factor (unirradiated): 0.18
IFIT2; ISG-54K (M14660, second entry) change factor (unirradiated): −0.21
IFIT4; IFI60; cig5; RIGG (AF026941) change factor (unirradiated): −0.23
IGF-BP 3; insulin-like growth factor-binding protein-3 gene (M35878) change factor (unirradiated): 0.29
IGF-BP 3; insulin-like growth factor-binding protein-3 gene (M35878, second entry) change factor (unirradiated): 0.22
IL6; Interleukin 6; IFNβα2a (X04430) change factor (unirradiated): 0.6
IL18; IGIF (IFNγ inducing factor) (D49950) change factor (unirradiated): −0.8
ILK; integrin-linked kinase (U40282) change factor (unirradiated): −0.23
IRF-1; interferon regulatory factor 1 (L05072) change factor (unirradiated): 0.16
IRF-7b; interferon regulatory factor 7b (U53831) change factor (unirradiated): 0.16
IRF-9; p48; ISGF3γ (M97935) change factor (unirradiated): −0.18
JUNB (M29039) change factor (unirradiated): −0.38
JUNB (X51345) change factor (unirradiated): −0.5
JUND (X56681) change factor (unirradiated): 0.6
JUND (X56681, second entry) change factor (unirradiated): 0.01
JUND (X56681, third entry) change factor (unirradiated): 0
K-RAS (M54968) change factor (unirradiated): −0.6
KINESIN-LIKE 2; HSET (AL021366) change factor (unirradiated): −0.34
KINESIN-LIKE 2; HSET (D14678) change factor (unirradiated): −0.04
KINESIN-LIKE 2; HSET (D14678, second entry) change factor (unirradiated): 0.03
KINESIN-LIKE 5; KNSL5; MKLP-1; mitotic kinesin-like protein-1 (X67155) change factor (unirradiated): −0.15
KINESIN-LIKE 6; KNSL6; MCAK; mitotic centromere-associated kinesin (U63743) change factor (unirradiated): −0.15
KINESIN_LIKE 1; KNSL1; HKSP; EG5 (U37426) change factor (unirradiated): −0.04
KLF4; EZF (epithelial Zn finger) (U70663) change factor (unirradiated): −0.17
KRS-2; stress responsive serine/threonine protein kinase (U60207) change factor (unirradiated): −0.8
KU (p70/p80) (M30938) change factor (unirradiated): −0.18
LIM kinase 2 (limk-2) (D45906) change factor (unirradiated): −0.3
Lekti (AJ228139) change factor (unirradiated): 0.48
MAD3L; mitotic checkpoint kinase (AF053306) change factor (unirradiated): −0.18
MAF-F (AL021977) change factor (unirradiated): −0.26
MAP kinase phosphatase (mkp-2) (U48807) change factor (unirradiated): 0
MAPK9; JNK2 (U09759) change factor (unirradiated): −0.36
MAPK14; p38; csaids binding protein (csbp1) (L35263) change factor (unirradiated): −0.38
MAPKK3b; MKK3b (D87116) change factor (unirradiated): −0.06
MAPKK MEK5b (U71087) change factor (unirradiated): −0.16
MAPKKK5; ASK1 (U67156) change factor (unirradiated): −0.06
MEIS2 (AF017418) change factor (unirradiated): 0.26
MMP10 (X07820) change factor (unirradiated): −1.3
MMP-1 (M13509) change factor (unirradiated): −1.61
MMP-3 (X05232) change factor (unirradiated): −0.46
